The compounds below were run on Trypanosome (T. brucei brucei) (assay: In-vitro antitrypanosomal efficacy assay (cell growth, resazurin)). Settings: T. brucei brucei, blood stream form, variant 221.
Type: cell-based
Description: To column 12, 200 μl media was added to provide a no cells control. Plates were then incubated at 37° C. in an atmosphere of 5% CO2 for 69 hours, before the addition of 20 μl of 500 μM rezasurin solution, and a further incubation period of 4 hours. […] Concentration effect curves were fitted using non-linear regression using XLFit 4.2 and EC50 values determined.

SMILES | ED50 (μM) T. brucei [µM]
Cc1c(N[S+](=O)([O-])c2ccc(-c3ccc(F)c(CN(C)C)c3)cc2)c(CC(C)C)nn1C [DDD99832] | 0.010
Cc1nn(C)c(C)c1N(C)[S+](=O)([O-])c1ccc(CCCCCCCCN(C)C)cc1 [DDD100093] | 0.106
Cc1nn(C)c(C)c1N(CC(F)F)[S+](=O)([O-])c1c(Cl)cc(CCCCC2CCN(C)CC2)cc1Cl [DDD100159] | 0.009
Cc1nn(C)c(C)c1N(C(F)F)[S+](=O)([O-])c1ccc(-c2cccc(C3CCNCC3)c2)cc1 [DDD100891] | 0.129
Cc1nn(C)c(C)c1N(C(F)F)[S+](=O)([O-])c1c(Cl)cc(CCCOC2CN3CCC2CC3)cc1Cl (stereo not drawn) [DDD100872] | 0.002
Cc1nn(C)c(C)c1N(C(F)F)[S+](=O)([O-])c1c(Cl)cc(CCCN2CCCN(C)CC2)cc1Cl [DDD100164] | 0.001
Cc1nn(C)c(C)c1N(CC(F)F)[S+](=O)([O-])c1c(Cl)cc(CCCC2CCNCC2)cc1Cl [DDD100145] | 0.02
Cc1nn(C)c(C)c1N(C(F)F)[S+](=O)([O-])c1c(Cl)cc(CCCN2CCN(C)CC2)cc1Cl [DDD100086] | 0.012
Cc1nn(C)c(C)c1N(CC(F)F)[S+](=O)([O-])c1c(Cl)cc(CCCOC2CCN(C)CC2)cc1Cl [DDD100161] | 0.006
Cc1c(N[S+](=O)([O-])c2ccc(-c3ccc(Cl)c(CN(C)C)c3)cc2)c(CC(C)C)nn1C [DDD100143] | 0.017
CCc1nn(C)c(CC)c1N(C)[S+](=O)([O-])c1c(Cl)cc(CCCN2CCN(C)CC2)cc1Cl [DDD99836] | 0.013
Cc1nn(C)c(C)c1N(C)[S+](=O)([O-])c1c(Cl)cc(CCCCCn2ccnc2)cc1Cl [DDD99834] | 0.225

Same assay, conditions: T. brucei cell growth

SMILES | ED50 (μM) T. brucei [µM]
Cc1nn(C)c(C)c1N[S+](=O)([O-])c1c(Cl)cc(-c2ccc(N3CCNCC3)nc2)cc1Cl [DDD85645] | 0.23
Cc1nn(C)c(C)c1N(C)[S+](=O)([O-])c1c(Cl)cc(CCCC2CCNCC2)cc1Cl [DDD90022] | 0.002
Cc1cc([S+](=O)([O-])Nc2c(C)nn(C)c2C)c(Cl)cc1Cl [DDD60006] | >1
Cc1nn(C)c(C)c1N(CC(F)F)[S+](=O)([O-])c1ccc(-c2ccnc(N3CCNCC3)c2)cc1 [DDD90111] | 0.005
Cc1nn(C)c(C)c1NS(=O)(=O)c1ccc(-c2ccnc(N3CC(C)NC(C)C3)c2)cc1 (stereo not drawn) [DDD87761, 4-[2-(3,5-Dimethyl-piperazin-1-yl)-pyridin-4-yl]-N-(1,3,5-trimethyl-1H-pyrazol-4-yl)-benzenesulfonamide] | 0.02
Cc1nn(C)c(C)c1N[S+](=O)([O-])c1cc(F)c(Br)cc1F [DDD88004, 4-Bromo-3,6-difluoro-N-(1,3,5-trimethyl-1H-pyrazol-4-yl)-benzenesulfonamide] | >1
Cc1nn(C)c(C)c1N[S+](=O)([O-])c1cc(C(F)(F)F)cc(C(F)(F)F)c1 [DDD61393] | >1
Cc1ncccc1N[S+](=O)([O-])c1ccc(-c2cccc(C3CCNCC3)c2)cc1 [DDD88003, 3′-Piperidin-4-yl-biphenyl-4-sulfonic acid (2-methyl-pyridin-3-yl)-amide] | 1.9
Cc1nn(C)c(C)c1N(Cc1ccccc1)[S+](=O)([O-])c1c(Cl)cc(Br)cc1Cl [DDD85601] | >1
Cc1noc(C)c1N[S+](=O)([O-])c1c(Cl)cc(-c2ccnc(N3CCNCC3)c2)cc1Cl [DDD86468, 2,6-Dichloro-N-(3,5-dimethyl-isoxazol-4-yl)-4-(2-piperazin-1-yl-pyridin-4-yl)-benzenesulfonamide] | 0.20
Cc1nn(C)c(C)c1N[S+](=O)([O-])c1ccc2nc(Cl)ccc2c1 [DDD88533] | >10
Cc1nn(C)cc1N[S+](=O)([O-])c1ccc(-c2ccnc(N3CCNCC3)c2)cc1 [DDD86471, N-(1,3-Dimethyl-1H-pyrazol-4-yl)-4-(2-piperazin-1-yl-pyridin-4-yl)-benzenesulfonamide] | 0.009
Cc1nn(C)c(C)c1N[S+](=O)([O-])c1c(Cl)cc(CCCC2CCNCC2)cc1Cl [DDD99759] | 0.003
Cc1nn(C)c(C)c1N[S+](=O)([O-])c1ccc(NCCC2CCN(C)CC2)nc1 [DDD88000, 6-[2-(1-Methyl-piperidin-4-yl)-ethylamino]-pyridine-3-sulfonic acid (1,3,5-trimethyl-1H-pyrazol-4-yl)-amide] | 0.77
Cc1nn(C)cc1N[S+](=O)([O-])c1c(Cl)cc(-c2ccnc(N3CCNCC3)c2)cc1Cl [DDD86475, 2,6-Dichloro-N-(1,3-dimethyl-1H-pyrazol-4-yl)-4-(2-piperazin-1-yl-pyridin-4-yl)-benzenesulfonamide] | 0.003
Cc1nn(C)c(C)c1N[S+](=O)([O-])c1ccc(C#N)cc1Cl [DDD73228] | >1
Cc1nn(C)c(C)c1N[S+](=O)([O-])c1c(Cl)cc(C#CCN2CCN(C)CC2)cc1Cl [DDD86469, 2,6-Dichloro-4-[3-(4-methyl-piperazin-1-yl)-prop-1-ynyl]-N-(1,3,5-trimethyl-1H-pyrazol-4-yl)-benzenesulfonamide] | 0.55
CCN(CC)Cc1cccc(-c2ccc([S+](=O)([O-])N(C)c3c(CC(C)C)nn(C)c3C)cc2)c1 [DDD88643] | 0.49
Cc1noc(C)c1N[S+](=O)([O-])c1ccc(-c2cccc(C3CCNCC3)c2)cc1 [DDD88189, 3′-Piperidin-4-yl-biphenyl-4-sulfonic acid (3,5-dimethyl-isoxazol-4-yl)-amide] | >1
Cc1nn(C)c(C)c1N[S+](=O)([O-])c1ccc(N2CCC(N3CCCCC3)C2)nc1 (stereo not drawn) [DDD86477] | >1
Cc1nn(C)c(C)c1N(CC(F)(F)F)[S+](=O)([O-])c1ccc(-c2cccc(CN3CCN(C)CC3)c2)cc1 [DDD90057] | 0.73

SMILES | ED50 (μM) T. brucei [µM]
Cc1nn(C)c(C)c1N[S+](=O)([O-])c1ccc(NC2CCNC2)nc1 (stereo not drawn) [DDD86296] | >1
Cc1nn(C)c(C)c1N[S+](=O)([O-])c1c(F)cc(Br)cc1F [DDD88317] | >10
Cc1nn(C)c(C)c1N(CC1OCCO1)[S+](=O)([O-])c1c(Cl)cc(Br)cc1Cl [DDD85641] | 16.3
Cc1nn(C)c(C)c1N[S+](=O)([O-])c1c(Cl)cc(-c2ccnc(NCCN(C)C)c2)cc1Cl [DDD86309, 2,6-Dichloro-4-[2-(2-dimethylamino-ethylamino)-pyridin-4-yl]-N-(1,3,5-trimethyl-1H-pyrazol-4-yl)-benzenesulfonamide] | >1
COCc1ccccc1-c1cc(Cl)c([S+](=O)([O-])Nc2c(C)nn(C)c2C)c(Cl)c1 [DDD73274] | >1
Cc1nn(C)c(C)c1N(C)[S+](=O)([O-])c1c(Cl)cc(-c2ccnc(N3CCNCC3)c2)cc1Cl [DDD88193, 2,6-Dichloro-N-methyl-4-(2-piperazin-1-yl-pyridin-4-yl)-N-(1,3,5-trimethyl-1H-pyrazol-4-yl)-benzenesulfonamide] | 0.005
Cc1nn(C)c(C)c1N[S+](=O)([O-])c1ccc(Br)cc1Cl [DDD86208, 4-Bromo-2-chloro-N-(1,3,5-trimethyl-1H-pyrazol-4-yl)-benzenesulfonamide] | >1
Cc1c(N(C)[S+](=O)([O-])c2ccc(CCCC3CCN(C)CC3)cc2)c(CC(C)C)nn1C [DDD90142] | 0.168
Cc1nn(C)c(CC(C)C)c1N[S+](=O)([O-])c1c(Cl)cc(-c2ccnc(N3CCNCC3)c2)cc1Cl [DDD86467, 2,6-Dichloro-N-(5-isobutyl-1,3-dimethyl-1H-pyrazol-4-yl)-4-(2-piperazin-1-yl-pyridin-4-yl)-benzenesulfonamide] | 0.003
Cc1nn(C)c(C)c1N[S+](=O)([O-])c1c(Cl)cc(Br)cc1Cl [DDD73234, 4-Bromo-2,6-dichloro-N-(1,3,5-trimethyl-1H-pyrazol-4-yl)-benzenesulfonamide] | 14.3
Cc1nn(C)c(C)c1N[S+](=O)([O-])c1c(Cl)cc(CCCC2CCN(C)CC2)cc1Cl [DDD88557] | 0.002
Cc1nn(C)c(C)c1N[S+](=O)([O-])c1c(Cl)cc(-c2cccc(CN3CCCC3)c2)cc1Cl [DDD88009, 3,5-Dichloro-3′-pyrrolidin-1-ylmethyl-biphenyl-4-sulfonic acid (1,3,5-trimethyl-1H-pyrazol-4-yl)-amide] | 0.10
Cc1nn(C)c(C)c1N(C)[S+](=O)([O-])c1ccc(CCCC2CCN(C)CC2)cc1 [DDD90023] | 0.20
Cc1nn(C)c(C)c1N[S+](=O)([O-])c1ccc(-c2ccccc2CN2CCN(C)CC2)cc1 [DDD87764, 2′-(4-Methyl-piperazin-1-ylmethyl)-biphenyl-4-sulfonic acid (1,3,5-trimethyl-1H-pyrazol-4-yl)-amide] | >1
Cc1ncccc1N[S+](=O)([O-])c1ccc(-c2ccnc(N3CCNCC3)c2)cc1 [DDD87994, N-(2-Methyl-pyridin-3-yl)-4-(2-piperazin-1-yl-pyridin-4-yl)-benzenesulfonamide] | 0.11
Cc1nn(C)c(C)c1N[S+](=O)([O-])c1c(Cl)cc(CCCN2CCN(C)CC2)cc1Cl [DDD87769, 2,6-Dichloro-4-[3-(4-methyl-piperazin-1-yl)-propyl]-N-(1,3,5-trimethyl-1H-pyrazol-4-yl)-benzenesulfonamide] | 0.008
COc1cc(NC(C)=O)ccc1[S+](=O)([O-])Nc1c(C)nn(C)c1C [DDD71590] | >1
Cc1nn(C)c(C)c1N(C)[S+](=O)([O-])c1c(Cl)cc(CCCN2CCN(C)CC2)cc1Cl [DDD88644] | 0.012
Cc1c(N[S+](=O)([O-])c2ccc(-c3cccc(CN4CCCC4)c3)cc2)c(CC(C)C)nn1C [DDD99739] | 0.058
Cc1nn(C)c(C)c1N(C)[S+](=O)([O-])c1ccc(CCCCCCN(C)C)cc1 [DDD99753] | 0.406
Cc1nn(C)c(C)c1N[S+](=O)([O-])c1c(Cl)cc(-c2ccc(CN3CCN(C)CC3)cc2)cc1Cl [DDD85644] | 2.1

Reference: US9156811B2 (priority 2008, dated 2015)
